Test results as given in patent publication US11084783B2, “O-alkyl-benzylideneguanidine derivatives and therapeutic use for the treatment of disorders associated with an accumulation of misfolded proteins” (INFLECTIS BIOSCIENCE, priority 2014, dated 2021).

Columns and labels:
[1] = tested on: amyloid-beta 1-42 injured primary cortical rat neurons; experiment: In vitro Alzheimer disease model: amyloid-beta 1-42 injured primary cortical rat neurons; type: cell-based; conditions: Amyloid-beta 1-42 20 μM, 24 hours; total number of neurons (MAP-2)
Method: Rat cortical neurons were cultured as described by Singer et al., (1999 J. Neuroscience 19 pp2455-63) and Callizot et al., (2013 J.Neurosci. Res. 91 pp706-16). Pregnant females (Wistar; Janvier Labs) at 15 days of gestation were killed by cervical dislocation. Fetuses were collected and immediately placed in ice-cold L15 Leibovitz medium (Pan Biotech, Batch: 9310614) with a 2% penicillin (10,000 U/mI) and streptomycin (10 mg/ml) solution (PS; Pan Biotech, Batch: 1451013) and 1% bovine serum albumin (BSA; Pan Biotech, Batch: h140603). Cortex was treated for 20 min at 37° C. with a trypsin-EDTA (Pan Biotech, Batch: 5890314) solution at a final concentration of 0.05% trypsin and 0.02% EDTA. […] Viable cells were counted in a Neubauer cytometer, using the trypan blue exclusion test. […]
The Amyloid-beta1-42 preparation was done following the procedure described by Callizot et al., 2013. […] Amyloid-beta 1-42 preparation was added to a final concentration of 20 μM (including to ˜2 μM of toxic oligomers measured by WB) diluted in control medium in presence of drugs. […]
The immunolabeled cultures were automatically examined with ImageXpress (Molecular device USA) at ×20 magnification. For each condition, 30 automatically fields per well (representing ˜80% of the total surface of the well) from 3 wells were analyzed. […] All values were expressed as mean +/−SEM (s.e.mean) (n=3 wells per condition per culture).

[2] = tested on: neonatal rat cardiomyocytes; experiment: Hypoxia-induced apoptosis in cultured neonatal rat cardiomyocytes; type: cell-based; conditions: hypoxia 0.3% O2 for 36 h, apoptotic cells by FACS
Text: Primary cultures of neonatal rat cardiomyocytes were obtained from the ventricles of 1-day-old Sprague Dawley rats (Janvier, France). The rats were euthanized and their hearts excised. Hearts cut into small pieces (1-2 mm^3) and enzymatically digested using the Neonatal Heart Dissociation Kit rat and the gentleMACS™ Dissociator (MiltenyiBiotec, Germany). After dissociation, the homogenates were filtered (70 μm) to obtain a single-cell suspension. Isolated cells were collected by centrifugation and resuspended in Dulbecco's Modified Eagle's Medium (DMEM) containing 10% horse serum (HS), 5% fetal bovine serum (FBS) and 1% penicillin/streptomycin. Cultures were enriched with myocytes by pre-plating for 90 min to deplete the population of non-myocytes. Non-attached cells were plated onto 6- or 96-well plates at an appropriate cell density. […]
After 24 hours, the cardiomyocytes were treated with different concentrations of test compound in culture medium with 0.1% DMSO. […] Thirty minutes after starting the treatments, the cells were incubated in the hypoxic culture chamber (N2/CO2, 95%/5%; final measured O2: 0.3%) for 36 hours. […]
At the end of the treatment period, flow cytometry were performed to measure the amount of apoptotic cells. […] The mixture was incubated for 15 min in the dark at room temperature, and cellular fluorescence was then measured by FACS scan flow cytometry.

| SMILES | protection of amyloid-beta 1-42 injured primary cortical rat neurons (FIG. 4) [1] | protection from hypoxia-induced apoptosis (FIG. 10) [2] |
| --- | --- | --- |
| CCCONC(=N)N/N=C/c1ccccc1Cl [Compound 12, 2-(2-chlorobenzylidene)-N-propoxyhydrazinecarboximidamide] | dose dependent protection | – |
| CCO/N=C(\N)N/N=C/c1ccccc1Cl [Compound 10, 2-(2-chlorobenzylidene)-N′-ethoxyhydrazinecarboximidamide] | – | protects |
